Measured values taken from ChEMBL document CHEMBL4725409, “Understanding and Improving the Membrane Permeability of VH032-Based PROTACs” (ACS Med Chem Lett, 2020).

What was measured:
[1] = Permeability of the compound in phosphate buffer containing 5% DMSO at pH 7.4 incubated for 15 hrs by PAMPA based LC/MS analysis; format: ADME; settings: pH 7.4, 15 h
[2] = Partition coefficient, logD of the compound in 1,9-decadiene and phosphate buffer at pH 7.4 measured after 30 mins under shaking condition by LC-MS analysis; format: physicochemical

| Compound | Peff [1] | logD hydrocarbon water at 0.5 h [2] |
| --- | --- | --- |
| Cc1ncsc1-c1ccc(CNC(=O)[C@@H]2C[C@@H](O)CN2C(=O)[C@@H](NC(=O)COCCOCCOCCOCCOCCOCC(=O)N[C@H](C(=O)N2C[C@H](O)C[C@H]2C(=O)NCc2ccc(-c3scnc3C)cc2)C(C)(C)C)C(C)(C)C)cc1 | 0.005 10^-6 cm/s | -4.3 |
| CC(=O)N[C@H](C(=O)N1C[C@H](O)C[C@H]1C(=O)NCc1ccc(-c2scnc2C)cc1)C(C)(C)SCCCCNC(=O)C[C@@H]1N=C(c2ccc(Cl)cc2)c2c(sc(C)c2C)-n2c(C)nnc21 | – | -3.8 |
| CC(=O)N[C@H](C(=O)N1C[C@H](O)C[C@H]1C(=O)NCc1ccc(-c2scnc2C)cc1)C(C)(C)SCCOCCOCCNC(=O)C[C@@H]1N=C(c2ccc(Cl)cc2)c2c(sc(C)c2C)-n2c(C)nnc21 | – | -4.3 |
| Cc1ncsc1-c1ccc(CNC(=O)[C@@H]2C[C@H](O)CN2C(=O)[C@@H](NC(=O)COCCOCCOCCOCCOCCOCC(=O)N[C@H](C(=O)N2C[C@@H](O)C[C@H]2C(=O)NCc2ccc(-c3scnc3C)cc2)C(C)(C)C)C(C)(C)C)cc1 | – | -3.2 |
| Cc1ncsc1-c1ccc(CNC(=O)[C@@H]2C[C@@H](O)CN2C(=O)[C@@H](NC(=O)Cc2ccccc2)C(C)(C)C)cc1 | – | -0.7 |
| Cc1ncsc1-c1ccc(CNC(=O)[C@@H]2C[C@@H](O)CN2C(=O)[C@@H](NC(=O)[C@H](Cc2ccccc2)NC(=O)COCCOCCOCCNC(=O)C[C@@H]2N=C(c3ccc(Cl)cc3)c3c(sc(C)c3C)-n3c(C)nnc32)C(C)(C)C)cc1 | – | -1.6 |
| Cc1ncsc1-c1ccc(CNC(=O)[C@@H]2C[C@@H](O)CN2C(=O)[C@@H](NC(=O)COCCOCCOCCOCC(=O)N[C@H](C(=O)N2C[C@H](O)C[C@H]2C(=O)NCc2ccc(-c3scnc3C)cc2)C(C)(C)C)C(C)(C)C)cc1 | 0.009 10^-6 cm/s | -3.8 |
| CC(=O)N1c2ccc(-c3ccc(C(=O)NCCOCCOCC(=O)N[C@H](C(=O)N4C[C@H](O)C[C@H]4C(=O)NCc4ccc(-c5scnc5C)cc4)C(C)(C)C)cc3)cc2[C@H](Nc2ccc(Cl)cc2)C[C@@H]1C | – | -0.7 |
| Cc1ncsc1-c1ccc(CNC(=O)[C@@H]2C[C@@H](O)CN2C(=O)[C@@H](NC(=O)COCCOCCNC(=O)C[C@@H]2N=C(c3ccc(Cl)cc3)c3c(sc(C)c3C)-n3c(C)nnc32)C(C)(C)C)cc1 | – | -1.1 |
| Cc1ncsc1-c1ccc(CNC(=O)[C@@H]2C[C@@H](O)CN2C(=O)[C@@H](OC(=O)CCOCCOCCOCCNC(=O)Cc2ccccc2)C(C)(C)C)cc1 | – | -1.6 |
| Cc1ncsc1-c1ccc(CNC(=O)[C@@H]2C[C@@H](O)CN2C(=O)[C@@H](NC(=O)COCCOCCOCCNC(=O)C[C@@H]2N=C(c3ccc(Cl)cc3)c3c(sc(C)c3C)-n3c(C)nnc32)C(C)(C)C)cc1 | – | -1.6 |
| CC(=O)N[C@H](C(=O)N1C[C@H](O)C[C@H]1C(=O)NCc1ccc(-c2scnc2C)cc1)C(C)(C)SCCOCCNC(=O)C[C@@H]1N=C(c2ccc(Cl)cc2)c2c(sc(C)c2C)-n2c(C)nnc21 | – | -3.8 |
| Cc1ncsc1-c1ccc(CNC(=O)[C@@H]2C[C@@H](O)CN2C(=O)[C@@H](NC(=O)CCOCCOCCOCCNC(=O)Cc2ccccc2)C(C)(C)C)cc1 | – | -2.2 |
| CC(=O)N1c2ccc(-c3ccc(C(=O)NCCOCCOCCOCCOCC(=O)N[C@H](C(=O)N4C[C@H](O)C[C@H]4C(=O)NCc4ccc(-c5scnc5C)cc4)C(C)(C)C)cc3)cc2[C@H](Nc2ccc(Cl)cc2)C[C@@H]1C | – | -0.7 |
